Assay results published in patent publication US10253060B2, “Terpenoid derivatives” (Daiichi Sankyo Company, Limited, priority 2013, dated 2019).

How the values were obtained:
[1] = test system: ARPE-19 cells; test: Cytotoxicity, LDH-Cytotoxic Test in ARPE-19 cells; assay type: cell-based, human; conditions: 10 μM, approx. 16 hours, 3 wells
Experimental: ARPE-19 cells (human retinal pigment epithelium cell line, ATCC, catalog No. CRL-2302) were cultured (5% CO2, 37° C.). A DMEM/F12 (Life Technologies Japan Ltd., catalog No. 11330-032) mixed medium containing 10% inactivated FBS was used. The medium contained 100 units/mL (final concentration) penicillin and 100 μg/[…] (final concentration) streptomycin.
The ARPE-19 cells were seeded at 5000 cells/well in a 96-well plate. The amount of the medium was 50 μL. Approximately 3 hours later, 50 μL of a medium containing CDDO-Me or each of terpenoid derivatives A to H was added thereto, followed by culture for approximately 16 hours. Then, cytotoxicity was evaluated using LDH-Cytotoxic Test (Wako Pure Chemical Industries, Ltd., catalog No. 299-50601). The evaluation method followed the attached document. Each group consisted of 3 wells and was indicated as cytotoxicity at the concentration of 10 μM. The means thereof were 43% for CDDO-Me, 2% for terpenoid derivative A, 2% for terpenoid derivative B, 2% for terpenoid derivative C, 1% for terpenoid derivative D, 2% for terpenoid derivative E, 3% for terpenoid derivative F, 3% for terpenoid derivative G, and 1% for terpenoid derivative H. Terpenoid derivatives A to H were low in cytotoxicity as compared with CDDO-Me.

[2] = test system: NQO1; test: NQO1 assay in Hepa1c1c7 cells; assay type: cell-based, mouse; conditions: approx. 48 hours, mean of 3 wells
Experimental: Hepa1c1c7 cells (mouse hepatic cell line, ATCC, catalog No. CRL-2026) were cultured (5% CO2, 37° C.). A DMEM (Life Technologies Japan Ltd., catalog No. 11965-092) medium also containing 10% inactivated FBS was used. The medium contained 100 units/mL (final concentration) penicillin and 100 μg/[…] (final concentration) streptomycin. The NQO1 assay was conducted according to previous reports (Anal Biochem 1998; 169: 328-; and Methods Enzymol 2004; 382: 243-).
The Hepa1c1c7 cells were seeded at 10000 cells/well in a 96-well plate. The amount of the medium was 100 μL. Approximately 24 hours later, the medium was replaced with a medium containing CDDO-Me or each of terpenoid derivatives A to G, followed by further culture for approximately 48 hours. A lysis solution (a solution containing 2 mM EDTA and 0.8% digitonin), a reaction solution (a solution containing 0.025 M of tris-HCl, 0.067% of albumin, 0.01% of Tween-20, 2 U/mL of glucose-6-phosphate dehydrogenase, 5 μM of flavin adenine dinucleotide, 1 […], 30 μM of nicotinamide adenine dinucleotide phosphate, 0.03% of 3-(4,5-dimethyl-2-thiazolyl)-2,5-diphenyltetrazolium bromide (MTT), and 50 μM of menadione), and a stop solution (a solution containing 0.3 mM dicumarol and 5 mM potassium dihydrogen phosphate, pH 7.4) were prepared. After removal of the medium, 50 μL of the lysis solution was added thereto, and the mixture was left standing at 37° C. for 10 minutes. The reaction mixture was further shaken at room temperature for 10 minutes.
Two hundred μL of the solution was added thereto, and the mixture was left standing at room temperature for 5 minutes. Fifty μL of the stop solution was added thereto, and the absorbance at 490 nm was measured.
The test results were analyzed using Prism (GraphPad Software, Inc., Ver. 5) to calculate the CD value of the concentration at which the activity of NQO1 was increased 2-fold. Each group consisted of 3 wells and indicated as a mean of CD values.

Compound	cytotoxicity (LDH-Cytotoxic Test), mean [1]	CD value (concentration at which the activity of NQO1 was increased 2-fold) [2]
COC(=O)[C@]12CC[C@](C)(CO)C[C@H]1[C@H]1C(=O)C=C3[C@@]4(C)[C@H]5O[C@@]5(C#N)C(=O)C(C)(C)[C@@H]4CC[C@@]3(C)[C@]1(C)CC2 [terpenoid derivative A]	2%	1.3 nM
COC(=O)[C@@]12CC[C@]3(C)[C@H](C(=O)C=C4[C@@]5(C)[C@H]6O[C@@]6(C#N)C(=O)C(C)(C)[C@@H]5CC[C@]43C)[C@@H]1CC(C)(C)C(=O)C2 [terpenoid derivative C]	2%	0.4 nM
COC(=O)[C@]12CC[C@@](C)(CO)C[C@H]1[C@H]1C(=O)C=C3[C@@]4(C)[C@H]5O[C@@]5(C#N)C(=O)C(C)(C)[C@@H]4CC[C@@]3(C)[C@]1(C)CC2 [terpenoid derivative D]	1%	0.9 nM
CC1(C)CC(O)[C@]2(C(N)=O)CC[C@]3(C)[C@H](C(=O)C=C4[C@@]5(C)C6OC6(C#N)C(=O)C(C)(C)[C@@H]5CC[C@]43C)[C@@H]2C1 (stereo partly shown) [terpenoid derivative E]	2%	2.1 nM
CC1(C)C[C@H]2[C@H]3C(=O)C=C4[C@@]5(C)C6OC6(C#N)C(=O)C(C)(C)[C@@H]5CC[C@@]4(C)[C@]3(C)CC[C@@]2(C#N)CC1O (stereo partly shown) [terpenoid derivative F]	3%	0.1 nM
CC1(C)C[C@H]2[C@H]3C(=O)C=C4[C@@]5(C)C=C(C#N)C(=O)C(C)(C)[C@@H]5CC[C@@]4(C)[C@]3(C)CC[C@@]2(C#N)CC1O (stereo partly shown) [terpenoid derivative G]	3%	0.1 nM
COC(=O)[C@]12CCC(C)(C)C[C@H]1[C@H]1C(=O)C=C3[C@@]4(C)C5OC5(C#N)C(=O)C(C)(C)[C@@H]4CC(O)[C@@]3(C)[C@]1(C)CC2 (stereo partly shown) [terpenoid derivative H]	1%	
